According to patent publication US20240239755A1, “SUBSTITUTED PYRIDAZINONES, SALTS OR N-OXIDES THEREOF AND THEIR USE AS HERBICIDALLY ACTIVE SUBSTANCES” (Bayer Aktiengesellschaft, priority 2021, published 2024):

How the values were obtained:
Type in all cases: in vivo
[1] = tested on: Amaranthus retroflexus (AMARE); assay: Herbicidal post-emergence action, 1280 g/ha, AMARE; conditions: visual grading vs untreated controls
Text: (§1) Seeds of mono- and dicotyledonous weed plants were sown in plastic pots (double sowings with one species of mono- and one species of dicotyledonous weed plants per pot), in sandy loam, covered with soil and grown under controlled growth conditions. 2 to 3 weeks after sowing, the test plants were sprayed in the single-leaf stage. The compounds according to the invention, formulated in the form of wettable powders (WP) or as emulsifiable concentrates (EC), were sprayed onto the green plant parts as an aqueous suspension or as an emulsion, with the addition of 0.5% of an additive, at an application rate of 600 litres of water per hectare (converted). The test plants were placed in the greenhouse for ca. 3 weeks under optimum growth conditions, and then the effect of the preparations was assessed visually in comparison with untreated controls (herbicidal effect in percent (%): 100% effect=plants have died, 0% effect=as control plants).
(§2) Tables B1 to B11 below, show the effects of selected compounds of the general formula (I) according to Table 1 on various harmful plants using an application rate corresponding to 1280 g/ha obtained by the experimental procedure mentioned above.

[2] = tested on: Abutilon theophrasti (ABUTH); assay: Herbicidal post-emergence action, 1280 g/ha (Table B1); conditions: visual assessment after ca. 3 weeks vs untreated controls
Text: as §1, with “plants). Tables B1 to B11 below, show the effects of selected compounds of the general formula (I) according to Table 1 on various harmful plants using an application rate corresponding to 1280 g/ha obtained by the experimental procedure mentioned above.” for “plants).”

Stellaria media (STEME) [3] = assay: Herbicidal post-emergence action, 1280 g/ha (Table B9); conditions: visual assessment after ca. 3 weeks vs untreated controls
Text: as §1, with “plants). Tables B1 to B11 below, show the effects of selected compounds of the general formula (I) according to Table 1 on various harmful plants using an application rate corresponding to 1280 g/ha obtained by the experimental procedure mentioned above.” for “plants).”

Lolium rigidum (LOLRI) = assay: Herbicidal pre-emergence action, 1280 g/ha (Table A5); conditions: visual grading after ca. 3 weeks vs untreated controls
Text: (§3) Seeds of mono- and dicotyledonous weed plants were sown in plastic pots (double sowings with one species of mono- and one species of dicotyledonous weed plants per pot), in sandy loam, and covered with soil. The compounds according to the invention, formulated in the form of wettable powders (WP) or as emulsifiable concentrates (EC), were applied to the surface of the covering soil as an aqueous suspension or as an emulsion, with the addition of 0.5% of an additive, at an application rate of 600 litres of water per hectare (converted). Following treatment, the pots were placed in a greenhouse and kept under optimum growth conditions for the test plants. The visual grading of the damage to the test plants was carried out after ca. 3 weeks in comparison to untreated controls (herbicidal effect in percent (%): 100% effect=plants have died, 0% effect=as control plants). Tables A1 to A11 below, show the effects of selected compounds of the general formula (I) according to Table 1 on various harmful plants and an application rate corresponding to 1280 g/ha obtained by the experimental procedure mentioned above.

Stellaria media (STEME) [4] = assay: Herbicidal pre-emergence action, 1280 g/ha (Table A9); conditions: visual grading after ca. 3 weeks vs untreated controls
Text: as §3

Stellaria media (STEME) [5] = assay: Herbicidal post-emergence action, 320 g/ha, STEME; conditions: visual grading after ca. 3 weeks
Text: as §1
(§4) Tables D1 to D8 below, show the effects of selected compounds of the general formula (I) according to Table 1 on various harmful plants using an application rate corresponding to 320 g/ha obtained by the experimental procedure mentioned above.

Stellaria media (STEME) [6] = assay: Herbicidal pre-emergence action, 320 g/ha, STEME; conditions: visual grading after ca. 3 weeks
Text: as §3, with “plants).” for “plants). Tables A1 to A11 below, show the effects of selected compounds of the general formula (I) according to Table 1 on various harmful plants and an application rate corresponding to 1280 g/ha obtained by the experimental procedure mentioned above.”
Tables C1 to C6 below, show the effects of selected compounds of the general formula (I) according to Table 1 on various harmful plants using an application rate corresponding to 320 g/ha obtained by the experimental procedure mentioned above.

[7] = tested on: Matricaria inodora (MATIN); assay: Herbicidal pre-emergence action, 1280 g/ha (Table A6); conditions: visual grading after ca. 3 weeks vs untreated controls
Text: as §3

[8] = tested on: Amaranthus retroflexus (AMARE); assay: Herbicidal pre-emergence action, 1280 g/ha (Table A11); conditions: visual grading after ca. 3 weeks vs untreated controls
Text: as §3

[9] = tested on: Amaranthus retroflexus (AMARE); assay: Herbicidal post-emergence action, 320 g/ha, AMARE; conditions: visual grading after ca. 3 weeks
Text: as §1, §4

Veronica persica (VERPE) = assay: Herbicidal post-emergence action, 1280 g/ha, VERPE; conditions: visual grading vs untreated controls
Text: as §1, §2

Kochia scoparia (KCHSC) [10] = assay: Herbicidal post-emergence action, 1280 g/ha (Table B4); conditions: visual assessment after ca. 3 weeks vs untreated controls
Text: as §1, with “plants). Tables B1 to B11 below, show the effects of selected compounds of the general formula (I) according to Table 1 on various harmful plants using an application rate corresponding to 1280 g/ha obtained by the experimental procedure mentioned above.” for “plants).”

[11] = tested on: Abutilon theophrasti (ABUTH); assay: Herbicidal post-emergence action, 320 g/ha, ABUTH; conditions: visual grading after ca. 3 weeks
Text: as §1, §4

[12] = tested on: Matricaria inodora (MATIN); assay: Herbicidal post-emergence action, 1280 g/ha (Table B6); conditions: visual assessment after ca. 3 weeks vs untreated controls
Text: as §1, with “plants). Tables B1 to B11 below, show the effects of selected compounds of the general formula (I) according to Table 1 on various harmful plants using an application rate corresponding to 1280 g/ha obtained by the experimental procedure mentioned above.” for “plants).”

Kochia scoparia (KCHSC) [13] = assay: Herbicidal pre-emergence action, 1280 g/ha (Table A4); conditions: visual grading after ca. 3 weeks vs untreated controls
Text: as §3

SMILES	herbicidal effect AMARE [1] [%]	herbicidal effect ABUTH [2] [%]	herbicidal effect STEME (Stellaria media (STEME) [3]) [%]	herbicidal effect LOLRI (Lolium rigidum (LOLRI)) [%]	herbicidal effect STEME (Stellaria media (STEME) [4]) [%]	herbicidal effect STEME (Stellaria media (STEME) [5]) [%]	herbicidal effect STEME (Stellaria media (STEME) [6]) [%]	herbicidal effect MATIN [7] [%]	herbicidal effect AMARE [8] [%]	herbicidal effect AMARE [9] [%]	herbicidal effect VERPE (Veronica persica (VERPE)) [%]	herbicidal effect KCHSC (Kochia scoparia (KCHSC) [10]) [%]	herbicidal effect ABUTH [11] [%]	herbicidal effect MATIN [12] [%]	herbicidal effect KCHSC (Kochia scoparia (KCHSC) [13]) [%]
CCOC(=O)Oc1c(C)nn(C)c(=O)c1Oc1ccc(C)cc1C1CC1 [Example I-038]	90	90	–	–	–	–	–	–	–	–	–	–	–	–	–
Cc1nn(C)c(=O)c(Oc2cc(Cl)cc(Cl)c2Cl)c1OC(=O)C(C)C [Example I-100]	90	90	100	90	100	90	100	–	–	–	–	–	–	–	–
Cc1cccc(Cl)c1Oc1c(O)c(C)nn(C)c1=O [Example I-023]	90	–	90	–	90	–	–	90	90	–	–	–	–	–	–
Cc1nn(C)c(=O)c(Oc2c(F)cccc2C2CC2)c1O [Example I-084]	90	90	90	90	–	–	–	–	–	90	90	90	–	–	–
Cc1nn(C)c(=O)c(Oc2ccccc2OC(F)F)c1O [Example I-082]	90	100	100	90	90	90	–	90	–	–	90	–	90	90	–
CCOC(=O)Oc1c(C)nn(C)c(=O)c1Oc1cccc(C)c1C1CC1 [Example I-066]	–	90	100	–	–	–	–	90	100	–	–	–	–	90	–
Cc1nn(C)c(=O)c(Oc2cc(F)cc(F)c2Br)c1O [Example I-090]	90	–	90	90	100	–	90	90	90	–	–	–	–	90	–
Cc1nn(C)c(=O)c(Oc2cccc(Cl)c2)c1O [Example I-004]	–	90	100	–	–	90	–	–	90	–	–	–	–	–	90
Cc1nn(C)c(=O)c(Oc2ccccc2)c1O [Example I-001]	–	–	–	–	–	–	–	–	90	–	–	–	–	–	–
